Drawing on patent publication US11319303B2 (WIGEN BIOMEDICINE TECHNOLOGY (SHANGHAI) CO., LTD., priority 2017, dated 2022), this text covers IC50 for 38 compounds.

Where a name gives a salt, the structure may show the parent alone.

One experiment deals with LC3B (Homo sapiens, UniProt Q9GZQ8). The experiment is described as follows: Fluorescence Polarization (FP) Assay: displacement of FITC-labeled peptide from GST-LC3B. It is filed as binding.
Conditions: not given
Here is the method: The compounds of the present invention for regulating the autophagy-related protein LC3B were tested by Fluorescence Polarization (FP) Assay.
Fluorescence Polarization (FP) Assay Test
(In general: Polarisation of emitted light reports the rotation of a fluorescent probe.)
What is called IC50 is the midpoint of a concentration-inhibition curve. `CN1C(=O)C(=CNCCN2CCN(CCO)CC2)C(=O)N(C)C1=O` [Compound 10, 5-(((2-(4-(2-hydroxyethyl)piperazin-1-yl)ethyl)amino)methylene)-1,3-dimethylpyrimidine-2,4,6(1H,3H,5H)-trione] gave an IC50 of 100 to 1000 µM.

Take `CN(C)CCNC=C1C(=O)CC(c2cccc(F)c2F)CC1=O` (centres unmarked) [Compound 304, 5-(2,3-difluorophenyl)-2-(((2-(dimethylamino)ethyl)amino)methylene) cyclohexane-1,3-dione]: the IC50 is < 3 µM.

The same experiment, now with this note: Fluorescence Polarization assay; GST-LC3B 180 nM, FITC-labeled peptide 18 nM, 25° C.; read-out: IC50.
For the compound `Cc1ccc(NC(=O)CN2CCN(CCNC=C3C(=O)CC(c4ccccc4Br)CC3=O)CC2)cc1` (centres unmarked) [Compound 372, 2-(4-(2-(((4-(2-bromophenyl)-2,6-dioxocyclo-hexylidene)methyl)amino)ethyl)piperazin-1-yl)-N-(p-tolyl) acetainide], the IC50 is < 3 µM.

Take `NCCOC(=O)[C@H](Cc1ccccc1)NC=C1C(=O)CC(c2ccccc2)CC1=O` (stereo partly drawn) [Compound 178, 2-aminoethyl ((2,6-dioxo-4-phenylcyclo-hexylidene)methyl)-L-phenylalaninate hydrochloride]: the IC50 fell in the range of 15 to 100 µM.

For `O=C1CC(c2ccccc2)CC(=O)C1=CNC1CCNCC1` (centres unmarked) [Compound 140, 5-phenyl-2-((piperidin-4-ylamino)methylene) cyclohexane-1,3-dione hydrochloride], the IC50 was 15 to 100 µM.

For `O=C1CC(c2ccccc2)CC(=O)C1=CNCCN1CCN(C(=O)c2ccc(Cl)cc2)CC1` (centres unmarked) [Compound 219, 2-(((2-(4-(4-chlorobenzoyl)piperazin-1-yl)ethyl)amino)methylene)-5-phenylcyclohexane-1,3-dione], the IC50 was < 3 µM.

As for `CN(C)C=C1C(=O)CC(c2n[nH]c3ccccc23)CC1=O` (centres unmarked) [Compound 286, 2-((dimethylamino)methylene)-5-(1H-indazol-3-yl)cyclohexane-1,3-dione], the IC50 was < 3 µM.

For the compound `CN1CCN(c2ccc(C3CC(=O)C(=CNCCN4CCN(CCO)CC4)C(=O)C3)cn2)CC1` (centres unmarked) [Compound 79, 2-(((2-(4-(2-hydroxyethyl)piperazin-1-yl)ethyl)amino)methylene)-5-(6-(4-methylpiperazin-1-yl)pyridin-3-yl) cyclohexane-1,3-dione], the IC50 was in the range of 100 to 1000 µM.

For the compound `O=C1CC(c2ccccc2)CC(=O)C1=CNc1nc(C(=O)O)cs1` (centres unmarked) [Compound 148, 2-(((2,6-dioxo-4-phenylcyclo-hexylidene)methyl)amino) thiazole-4-carboxylic acid], the concentration for half-maximal inhibition (IC50) is < 3 µM.

Consider `O=C1CC(c2ccc(O)cc2)CC(=O)C1=CNCCN1CCN(CCO)CC1` (centres unmarked) [Compound 40, 2-(((2-(4-(2-hydroxyethyl)piperazin-1-yl)ethyl)amino)methylene)-5-(4-hydroxyphenyl) cyclohexane-1,3-dione], for which the IC50 was < 3 µM.

Take `N#Cc1ccc(C2CC(=O)C(=CNCCN3CCN(CCO)CC3)C(=O)C2)cc1` (centres unmarked) [Compound 51, 2-(((2-(4-(2-hydroxyethyl)piperazin-1-yl)ethyl)amino)methylene)-5-(4-(cyano)phenyl) cyclohexane-1,3-dione]: the IC50 was in the range of 15 to 100 µM.

On to `Cc1ccc(C2CC(=O)C(=CO)C(=O)C2)cc1` (centres unmarked) [Compound 415, 2-(hydroxymethylene)-5-(4-methylphenyl)cyclo-hexane-1,3-dione], for which the IC50 lay in the range of 3 to 15 µM.

On to `CN(C)CCNC=C1C(=O)CC(c2c(Cl)ccc(F)c2Cl)CC1=O` (centres unmarked) [Compound 411, 5-(2,6-dichloro-3-fluorophenyl)-2-(((2-(dimethylamino)ethyl)amino)methylene) cyclohexane-1,3-dione], for which the IC50 is < 3 µM.

`O=C1CC(c2cccc(Cl)c2Cl)CC(=O)C1=CNCCN1CCN(CCO)CC1` (centres unmarked) [Compound 400, 5-(2,3-dichlorophenyl)-2-(((2-(4-(2-ethoxyl)piperazin-1-yl)ethyl)amino)methylene) cyclohexane-1,3-dione]: the IC50 is < 3 µM.

Take `O=C1CC(c2c(C(F)(F)F)ccc(Cl)c2F)CC(=O)C1=CO` (centres unmarked) [Compound 447, 2-(hydroxymethylene)-5-((2-fluoro-3-chloro-6-trifluoromethyl)phenyl)cyclohexane-1,3-dione]: the IC50 is < 3 µM.

`O=C1CC(c2c(Cl)cccc2Cl)CC(=O)C1=CO` (centres unmarked) [Compound 420, 2-(hydroxymethylene)-5-(2,6-dichlorophenyl)cyclo-hexane-1,3-dione]: the IC50 is < 3 µM.

In the case of `CN(C)C=C1C(=O)CC(c2cncc3ccccc23)CC1=O` (centres unmarked) [Compound 287, 2-((dimethylamino)methylene)-5-(isoquinolin-4-yl)cyclohexane-1,3-dione], the IC50 lay in the range of 3 to 15 µM.

As to `O=C1CC(c2ccc(N3CCOCC3)cc2)CC(=O)C1=CNCCN1CCN(CCO)CC1` (centres unmarked) [Compound 35, 2-(((2-(4-(2-hydroxyethyl)piperazin-1-yl)ethyl)amino)methylene)-5-(4-morpholinophenyl) cyclohexane-1,3-dione], the IC50 is 15 to 100 µM.

On to `C[S+]([O-])CCNC=C1C(=O)CC(c2ccccc2)CC1=O` (centres unmarked) [Compound 207, 2-(((2-(methylsulfinyl)ethyl)amino)methylene)-5-phenylcyclohexane-1,3-dione], for which the IC50 lay within 15 to 100 µM.

For the compound `O=C1CC(c2ccc(OCCOc3ccncc3)cc2)CC(=O)C1=CNCCN1CCN(CCO)CC1` (centres unmarked) [Compound 71, 2-(((2-(4-(2-hydroxyethyl)piperazin-1-yl)ethyl)amino)methylene)-5-(4-(2-(pyridin-4-yloxy)ethoxy)phenyl) cyclohexane-1,3-dione], the IC50 was 15 to 100 µM.

On to `O=C1CC(c2ccnc3ccccc23)CC(=O)C1=CNCCN1CCN(CCO)CC1` (centres unmarked) [Compound 62, 2-(((2-(4-(2-hydroxyethyl)piperazin-1-yl)ethyl)amino)methylene)-5-(quinolin-4-yl) cyclohexane-1,3-dione], for which the concentration for half-maximal inhibition (IC50) lay in the range of 3 to 15 µM.

In the case of `CN(C)CCNC=C1C(=O)CC(c2c(Br)ccc(F)c2F)CC1=O` (centres unmarked) [Compound 409], the 50% inhibitory concentration (IC50) is < 3 µM.

Take `CN(C)C=C1C(=O)CC(c2ccc(N(C)C)cc2)CC1=O` (centres unmarked) [Compound 242, 2-((dimethylamino)methylene)-5-(4-(dimethylamino)phenyl) cyclohexane-1,3-dione]: the 50% inhibitory concentration (IC50) lay in the range of 3 to 15 µM.

On to `COc1cc(Br)c(C2CC(=O)C(=CO)C(=O)C2)cc1OC` (centres unmarked) [Compound 433, 2-(hydroxymethylene)-5-(2-bromo-4,5-dimethoxyphenyl) cyclohexane-1,3-dione], for which the IC50 was < 3 µM.

Take `O=C1CC(c2ccccc2)CC(=O)C1=CNCCOCCO` (centres unmarked) [Compound 134, 2-(((2-(2-hydroxyethoxy)ethyl)amino)methylene)-5-phenylcyclohexane-1,3-dione]: the concentration for half-maximal inhibition (IC50) was 100 to 1000 µM.

As for `O=C1CC(c2ccccc2)CC(=O)C1=CN[C@@H](Cc1ccccc1)C(=O)OCc1ccccc1` (stereo partly drawn) [Compound 125, benzyl ((2,6-dioxo-4-phenylcyclo-hexylidene)methyl)-L-phenylalaninate], the IC50 is 100 to 1000 µM.

With `CC(O)=C1C(=O)CC(c2ccccc2)CC1=O` (centres unmarked) [Compound 449, 2-(1-hydroxyethylidene)-5-phenylcyclohexane-1,3-dione], the IC50 lay in the range of 15 to 100 µM.

Turning to `O=C1Nc2cc(C(F)(F)F)ccc2C(=O)/C1=C\NCCN1CCN(CCO)CC1` [Compound 354, 3-(((2-(4-(2-hydroxyethyl)piperazin-1-yl)ethyl)amino)methylene)-7-(trifluoromethyl) quinoline-2,4(1H,3H)-dione], the IC50 is < 3 µM.

As for `CONC=C1C(=O)CC(c2ccccc2)CC1=O` (centres unmarked) [Compound 180, 2-((methoxyamino)methylene)-5-phenylcyclo-hexane-1,3-dione], the IC50 was in the range of 100 to 1000 µM.

On to `O=C1CC(c2ccccc2)CC(=O)C1=CNCC1CCNCC1` (centres unmarked) [Compound 161, 5-phenyl-2-(((piperidin-4-ylmethyl)amino)methylene) cyclohexane-1,3-dione hydrochloride], for which the IC50 fell in the range of 100 to 1000 µM.

Consider `CN(C)CCNC=C1C(=O)CC(c2ccc([N+](=O)[O-])cc2)CC1=O` (centres unmarked) [Compound 340, 2-(((2-(dimethylamino)ethyl)amino)methylene)-5-(4-nitrophenyl) cyclohexane-1,3-dione], for which the IC50 is < 3 µM.

In the case of `CC(C)Cn1cccc1C1CC(=O)C(=CN(C)C)C(=O)C1` (centres unmarked) [Compound 284, 2-((dimethylamino)methylene)-5-(1-isobutyl-1H-pyrrol-2-yl)cyclohexane-1,3-dione], the IC50 lay in the range of 3 to 15 µM.

Turning to `CC(NCCN1CCN(CCO)CC1)=C1C(=O)CC(c2ccccc2)CC1=O` (centres unmarked) [Compound 108, 2-(1-((2-(4-(2-hydroxyethyl)piperazin-1-yl)ethyl)amino)ethylidene)-5-phenylcyclohexane-1,3-dione], the IC50 was in the range of 100 to 1000 µM.

Turning to `O=C1CCN(c2ccccc2)C(=O)/C1=C\O` [Compound 450, 3-(hydroxymethylene)-N-phenylpiperidine-2,4-dione], the IC50 lay within 15 to 100 µM.

`O=C1CC(c2ccnc3[nH]ccc23)CC(=O)C1=CNCCN1CCN(CCO)CC1` (centres unmarked) [Compound 17, 2-(((2-(4-(2-hydroxyethyl)piperazin-1-yl)ethyl)amino)methylene)-5-(1H-pyrrolo[2,3-b]pyridin-4-yl)cyclohexane-1,3-dione]: the half-inhibitory concentration (IC50) fell in the range of 3 to 15 µM.

As for `O=C1CC([C@H]2O[C@@H](n3cnc4c(N5CCOCC5)ncnc43)[C@H](O)[C@@H]2O)CC(=O)C1=CNCCN1CCN(CCO)CC1` (stereo partly drawn) [Compound 114, 5-((2R, 3S, 4R, 5R)-3,4-dihydroxy-5-(6-morpholino-9H-purin-9-yl)tetrahydrofuran-2-yl)-2-(((2-(4-(2-hydroxyethyl)piperazin-1-yl)ethyl)amino)methylene)cyclohexane-1,3-dione], the IC50 lay within 100 to 1000 µM.

As for `CS(=O)(=O)N1CCN(CCNC=C2C(=O)CC(c3ccccc3)CC2=O)CC1` (centres unmarked) [Compound 218, 2-(((2-(4-(methylsulfonyl)piperazin-1-yl)ethyl)amino)methylene)-5-phenylcyclohexane-1,3-dione], the half-inhibitory concentration (IC50) is < 3 µM.

Turning to `Cc1ccccc1Cc1ccccc1C1CC(=O)C(=CN(C)C)C(=O)C1` (centres unmarked) [Compound 289, 2-((dimethylamino)methylene)-5-(2-(2-methylbenzyl)phenyl) cyclohexane-1,3-dione], the IC50 was in the range of 3 to 15 µM.
